According to PubChem BioAssay (NCI):
Several values for one entry are separate records, joined by “and”; a condition that tells them apart may be missing. Equal entries are not always repeated.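 Following 48 hours of exposure in 96-well plates, responses at five concentrations were used to interpolate endpoints linearly. GI50 marks 50% less growth. TGI marks complete inhibition of growth.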

Key:
Assay in all cases: NCI tumour cell line growth inhibition, 48 h
786-0 renal = test system: 786-0 renal
A498 renal = test system: A498 renal
A549 NSCLC = test system: A549 NSCLC
ACHN renal = test system: ACHN renal
CAKI-1 renal = test system: CAKI-1 renal
CCRF-CEM leukemia = test system: CCRF-CEM leukemia
COLO 205 colon = test system: COLO 205 colon
DLD-1 colon = test system: DLD-1 colon
DMS 114 small cell lung = test system: DMS 114 small cell lung
DMS 273 small cell lung = test system: DMS 273 small cell lung
EKVX NSCLC = test system: EKVX NSCLC
HCC-2998 colon = test system: HCC-2998 colon
HCT-116 colon = test system: HCT-116 colon
HCT-15 colon = test system: HCT-15 colon
HL-60(TB) leukemia = test system: HL-60(TB) leukemia
HOP-18 NSCLC = test system: HOP-18 NSCLC
HOP-62 NSCLC = test system: HOP-62 NSCLC
HOP-92 NSCLC = test system: HOP-92 NSCLC
HT29 colon = test system: HT29 colon
IGROV1 ovarian = test system: IGROV1 ovarian
K-562 leukemia = test system: K-562 leukemia
KM12 colon = test system: KM12 colon
KM20L2 colon = test system: KM20L2 colon
LOX IMVI melanoma = test system: LOX IMVI melanoma
LXFL 529 NSCLC = test system: LXFL 529 NSCLC
M14 melanoma = test system: M14 melanoma
M19-MEL melanoma = test system: M19-MEL melanoma
MALME-3M melanoma = test system: MALME-3M melanoma
MOLT-4 leukemia = test system: MOLT-4 leukemia
NCI-H226 lung = test system: NCI-H226 lung
NCI-H23 lung = test system: NCI-H23 lung
NCI-H460 lung = test system: NCI-H460 lung
NCI-H522 lung = test system: NCI-H522 lung
OVCAR-3 ovarian = test system: OVCAR-3 ovarian
OVCAR-4 ovarian = test system: OVCAR-4 ovarian
OVCAR-5 ovarian = test system: OVCAR-5 ovarian
OVCAR-8 ovarian = test system: OVCAR-8 ovarian
RPMI-8226 leukemia = test system: RPMI-8226 leukemia
RXF 393 renal = test system: RXF 393 renal
RXF-631 renal = test system: RXF-631 renal
SF-268 CNS = test system: SF-268 CNS
SF-295 CNS = test system: SF-295 CNS
SF-539 CNS = test system: SF-539 CNS
SK-MEL-2 melanoma = test system: SK-MEL-2 melanoma
SK-MEL-28 melanoma = test system: SK-MEL-28 melanoma
SK-MEL-5 melanoma = test system: SK-MEL-5 melanoma
SK-OV-3 ovarian = test system: SK-OV-3 ovarian
SN12C renal = test system: SN12C renal
SNB-19 CNS = test system: SNB-19 CNS
SNB-75 CNS = test system: SNB-75 CNS
SNB-78 CNS = test system: SNB-78 CNS
SR leukemia = test system: SR leukemia
SW-620 colon = test system: SW-620 colon
TK-10 renal = test system: TK-10 renal
U251 CNS = test system: U251 CNS
UACC-257 melanoma = test system: UACC-257 melanoma
UACC-62 melanoma = test system: UACC-62 melanoma
UO-31 renal = test system: UO-31 renal
XF 498 CNS = test system: XF 498 CNS

For `Cc1ccc(SSCC(O)C(O)CSSc2ccc(C)cc2)cc1` (stereo not given), the GI50 (786-0 renal) was 5.15 µM and 12.4 µM, the TGI (786-0 renal) was 17.5 µM and 24.9 µM and the TGI (A498 renal) was 18 µM. The TGI (A549 NSCLC) was 35.9 µM and 26.4 µM, the TGI (ACHN renal) was 23.6 µM and 29.3 µM and the GI50 (CAKI-1 renal) was 4.04 µM and 13.2 µM. The TGI (CAKI-1 renal) was 15.4 µM and 27 µM, the TGI (CCRF-CEM leukemia) was 4.08 µM and the GI50 (COLO 205 colon) was 1.99 µM and 14.2 µM. The TGI (COLO 205 colon) was 3.75 µM and 27.3 µM, the TGI (DLD-1 colon) was 32.1 µM and 30 µM and the GI50 (DMS 114 small cell lung) was 2.07 µM and 7.05 µM. The TGI (DMS 114 small cell lung) was 5.14 µM and 20.4 µM, the GI50 (DMS 273 small cell lung) was 4.26 µM and 10.5 µM and the TGI (DMS 273 small cell lung) was 14.9 µM and 22.5 µM. For the same molecule, the TGI (EKVX NSCLC) was 36 µM and 36.1 µM, the TGI (HCC-2998 colon) was 28.3 µM and 28.9 µM and the TGI (HCT-116 colon) was 20.1 µM and 24.5 µM. The TGI (HCT-15 colon) was 28.2 µM and 27.7 µM, the GI50 (HL-60(TB) leukemia) was 1.01 µM and 4.6 µM and the TGI (HL-60(TB) leukemia) was 3.1 µM and 25.6 µM. For the same molecule, the GI50 (HOP-18 NSCLC) was 13.5 µM and 27.2 µM, the TGI (HOP-18 NSCLC) was 31.9 µM and 53.6 µM and the GI50 (HOP-62 NSCLC) was 12.5 µM and 3.81 µM. For the same molecule, the TGI (HOP-62 NSCLC) was 26.6 µM and 9.98 µM, the TGI (HOP-92 NSCLC) was 26 µM and 31.4 µM and the TGI (HT29 colon) was 27.8 µM and 49.8 µM. The TGI (IGROV1 ovarian) was 5.87 µM and 6.81 µM, the GI50 (K-562 leukemia) was 4.84 µM and 15.3 µM and the TGI (K-562 leukemia) was 28.3 µM and 46.8 µM. For the same molecule, the TGI (KM12 colon) was 21.2 µM and 23.8 µM, the TGI (KM20L2 colon) was 24.2 µM and 26.6 µM and the TGI (LOX IMVI melanoma) was 2.78 µM and 4.21 µM. The TGI (LXFL 529 NSCLC) was 19 µM and 22.9 µM, the TGI (M14 melanoma) was 18.9 µM and 21.6 µM and the TGI (M19-MEL melanoma) was 25.5 µM and 36.9 µM. The TGI (MALME-3M melanoma) was 36 µM and 30.7 µM, the GI50 (MOLT-4 leukemia) was 1.43 µM and 3.12 µM and the TGI (MOLT-4 leukemia) was 5.96 µM and 20.9 µM. For the same molecule, the TGI (NCI-H226 lung) was 30.4 µM and 29 µM, the TGI (NCI-H23 lung) was 20.9 µM and 24.1 µM and the TGI (NCI-H460 lung) was 32.2 µM and 36.3 µM. The TGI (NCI-H522 lung) was 3.38 µM and 3.68 µM, the GI50 (OVCAR-3 ovarian) was 6.31 µM and 13.9 µM and the TGI (OVCAR-3 ovarian) was 18.4 µM and 27 µM. The TGI (OVCAR-4 ovarian) was 26.8 µM and 28.5 µM, the TGI (OVCAR-5 ovarian) was 30.2 µM and 38.4 µM and the GI50 (OVCAR-8 ovarian) was 4.21 µM and 17.4 µM. The TGI (OVCAR-8 ovarian) was 14.6 µM and 31.2 µM, the TGI (RPMI-8226 leukemia) was 12.8 µM and 22 µM and the TGI (RXF 393 renal) was 16.9 µM and 16.1 µM. For the same molecule, the GI50 (RXF-631 renal) was 10.1 µM and 3.4 µM, the TGI (RXF-631 renal) was 22.2 µM and 15.7 µM and the GI50 (SF-268 CNS) was 4.6 µM and 10.4 µM. For the same molecule, the TGI (SF-268 CNS) was 19.1 µM and 29.2 µM, the GI50 (SF-295 CNS) was 4.31 µM and 12.6 µM and the TGI (SF-295 CNS) was 16.4 µM and 26.1 µM. For the same molecule, the TGI (SF-539 CNS) was 8.17 µM and 14.3 µM, the TGI (SK-MEL-2 melanoma) was 20.5 µM and the TGI (SK-MEL-28 melanoma) was 26.8 µM and 28.6 µM. For the same molecule, the TGI (SK-MEL-5 melanoma) was 25.6 µM and 19.9 µM, the GI50 (SK-OV-3 ovarian) was 10.8 µM and 22.8 µM and the TGI (SK-OV-3 ovarian) was 23.7 µM and 43.6 µM. The GI50 (SN12C renal) was 4.74 µM and 10.5 µM, the TGI (SN12C renal) was 17.3 µM and 23.2 µM and the TGI (SNB-19 CNS) was 31.5 µM and 31.7 µM. For the same molecule, the GI50 (SNB-75 CNS) was 5.97 µM and 16.2 µM, the TGI (SNB-75 CNS) was 22.2 µM and 31.8 µM and the TGI (SNB-78 CNS) was 52.6 µM. The TGI (SR leukemia) was 15.7 µM and 23.7 µM, the TGI (SW-620 colon) was 20.2 µM and 27.2 µM and the TGI (TK-10 renal) was 35.2 µM and 27.7 µM. For the same molecule, the TGI (U251 CNS) was 10.9 µM and 12 µM, the TGI (UACC-257 melanoma) was 30.5 µM and 28.1 µM and the GI50 (UACC-62 melanoma) was 4.81 µM and 15.8 µM. The TGI (UACC-62 melanoma) was 17.2 µM and 31 µM, the TGI (UO-31 renal) was 17.6 µM and 15.3 µM and the TGI (XF 498 CNS) was 26.7 µM and 31.4 µM.
`O=[N+]([O-])c1cc(/C=N\NS(=O)(=O)c2ccc(Cl)cc2)c(O)c([N+](=O)[O-])c1` gave a TGI (786-0 renal) of over 100 µM, a TGI (A498 renal) of 83 µM and a TGI (A549 NSCLC) of over 100 µM. The TGI (ACHN renal) was over 100 µM, the TGI (CAKI-1 renal) was over 100 µM and the TGI (CCRF-CEM leukemia) was 78.5 µM. The TGI (COLO 205 colon) was 31 µM, the TGI (DLD-1 colon) was over 100 µM and the TGI (DMS 114 small cell lung) was over 100 µM. It also gave a TGI (DMS 273 small cell lung) of 73.3 µM, a TGI (EKVX NSCLC) of over 100 µM and a TGI (HCC-2998 colon) of over 100 µM. It also gave a TGI (HCT-116 colon) of over 100 µM, a TGI (HCT-15 colon) of 53.1 µM and a TGI (HL-60(TB) leukemia) of 54 µM. For the same molecule, the TGI (HOP-18 NSCLC) was over 100 µM, the TGI (HOP-62 NSCLC) was over 100 µM and the TGI (HOP-92 NSCLC) was over 100 µM. It also gave a TGI (HT29 colon) of 58.9 µM, a TGI (IGROV1 ovarian) of over 100 µM and a TGI (K-562 leukemia) of 79.5 µM. It also gave a TGI (KM12 colon) of 67.1 µM, a TGI (KM20L2 colon) of 74.1 µM and a TGI (LOX IMVI melanoma) of over 100 µM. It also gave a TGI (LXFL 529 NSCLC) of over 100 µM, a TGI (M14 melanoma) of 99.6 µM and a TGI (M19-MEL melanoma) of over 100 µM. For the same molecule, the TGI (MALME-3M melanoma) was over 100 µM, the TGI (MOLT-4 leukemia) was 86 µM and the TGI (NCI-H23 lung) was 50.8 µM. For the same molecule, the TGI (NCI-H460 lung) was 54.4 µM, the TGI (NCI-H522 lung) was 52.4 µM and the TGI (OVCAR-3 ovarian) was 54.1 µM. The TGI (OVCAR-4 ovarian) was over 100 µM, the TGI (OVCAR-5 ovarian) was over 100 µM and the TGI (OVCAR-8 ovarian) was 64.5 µM. It also gave a TGI (RPMI-8226 leukemia) of 80.9 µM, a TGI (RXF 393 renal) of 91.9 µM and a TGI (RXF-631 renal) of over 100 µM. The TGI (SF-268 CNS) was over 100 µM, the TGI (SF-295 CNS) was over 100 µM and the TGI (SF-539 CNS) was 44.2 µM. For the same molecule, the TGI (SK-MEL-2 melanoma) was over 100 µM, the TGI (SK-MEL-28 melanoma) was over 100 µM and the TGI (SK-MEL-5 melanoma) was 66.6 µM. It also gave a TGI (SK-OV-3 ovarian) of 83.5 µM, a TGI (SN12C renal) of 87.4 µM and a TGI (SNB-19 CNS) of 79.5 µM. For the same molecule, the TGI (SNB-75 CNS) was 73.5 µM, the TGI (SNB-78 CNS) was over 100 µM and the TGI (SR leukemia) was 45.2 µM. It also gave a TGI (SW-620 colon) of over 100 µM, a TGI (TK-10 renal) of over 100 µM and a TGI (U251 CNS) of 54.3 µM. For the same molecule, the TGI (UACC-257 melanoma) was over 100 µM, the TGI (UACC-62 melanoma) was over 100 µM and the TGI (UO-31 renal) was over 100 µM.
